{"source": "paper PMC9505425", "about": "“Targeting of the Mitochondrial TET1 Protein by Pyrrolo[3,2-b]pyrrole Chelators” (International Journal of Molecular Sciences, 2022)", "key": {"Caov-3 cells": {"tested_on": "Caov-3 cells", "test": "MTT cytotoxicity assay, Caov-3", "format": "cell-based, human", "protocol": "(§1) The effects of the tested compounds 1–6 on HF-P4, U-118 MG, H1299, BT-20, and Caov-3 cell lines were evaluated by the MTT assay during 48 h treatment (Table 2 and Tables S2–S31). In all tested compounds, we recognized a difference in cytotoxicity between healthy cells (HF-P4) and cancer cell lines (BT-20, Caov-3, and H-1299). […] In the case of ovarian cancer, the authors discovered oncogenic and poor prognosis roles of TET1 in epithelial ovarian carcinoma (EOC). TET1 is believed to demethylate the epigenome and activate numerous oncogenic pathways in EOC. The aforementioned study presents a new mechanism where TET1 contributes to tumor development through collaboration with CK2α [21]. The overexpression of the TET1 protein was also found in triple negative breast cancer and was associated with an activation of PI3K/mTOR pathway and decreased overall survival.\nThe human ovary adenocarcinoma cell line (Caov-3), purchased from ATCC (Caov-3 (ATCC® HTB-75™), Manassas, VA, USA), was used for the cytotoxicity assay (MTT). Caov-3 cells were cultivated under standard conditions in Dulbecco’s modified Eagle’s medium (ATCC, Manassas, VA, USA) supplemented with 10% FBS and streptomycin (100 μg/mL) at 37 °C at a 5% CO2 atmosphere.\n(§2) For the cytotoxicity assay, we used the following cell lines: human glioblastoma cell line U118-MG, human mammary gland/breast cell line BT-20, human ovary adenocarcinoma cell line Caov-3, and non-small-cell lung carcinoma H-1299. As previously mentioned, these cell lines contain a high level of the TET1 protein, which corresponds to a lower overall survival. In addition to these cell cultures, we used the human dermal fibroblast cell line HF-P4 as a healthy control. Determination of cytotoxicity was performed using the MTT [3-(4,5-dimethylthiazol-2-yl)-2,5-diphenyltetrazolium bromide] colorimetric assay. Viable cells from each cell line were cultured in 96-well plates (VWR, Stříbrná Skalice, Czech Republic) at a density of 1.0 × 10^5 cells per well and allowed to grow for 24 h in 200 μL of recommended medium. After a 1-day incubation, the medium was replaced with solutions of compounds 1–6 at concentration ranges of 0.1–20 μM. Each concentration was measured four times within one test, and the entire test was repeated three times. Tested compounds 1–6 were dissolved in DMSO and then diluted with corresponding medium to a final volume of 200 μL (maximum 1% DMSO). After 48 h exposure, cells were treated with 175 μL of MTT solution (P-LAB, Prague, Czech Republic) for 2 h. In the next step, MTT solution was removed, and 125 μL of DMSO (Penta, Prague, Czech Republic) was added to solubilize dark crystals of formazan formed in intact cells, and absorbance was measured at 570 nm by the enzyme-linked immunoabsorbent assay reader Infinite® 200 PRO (Tecan, Männedorf, Switzerland). The final DMSO concentration was smaller than 1% (v/v). The absorbance of untreated cells was considered 100%, and IC50 values were calculated by the GraphPad Prism 8 software. As a parameter for cytotoxicity, we used a concentration that inhibits 50% of cell growth (IC50)."}, "TET1 protein": {"biological_target": "T1, TET1 protein (Homo sapiens, UniProt Q8NFU7)", "T1 construct": "purchased Active Motif, Carlsbad, CA, USA", "T1 sequence (Q8NFU7 whole entry)": "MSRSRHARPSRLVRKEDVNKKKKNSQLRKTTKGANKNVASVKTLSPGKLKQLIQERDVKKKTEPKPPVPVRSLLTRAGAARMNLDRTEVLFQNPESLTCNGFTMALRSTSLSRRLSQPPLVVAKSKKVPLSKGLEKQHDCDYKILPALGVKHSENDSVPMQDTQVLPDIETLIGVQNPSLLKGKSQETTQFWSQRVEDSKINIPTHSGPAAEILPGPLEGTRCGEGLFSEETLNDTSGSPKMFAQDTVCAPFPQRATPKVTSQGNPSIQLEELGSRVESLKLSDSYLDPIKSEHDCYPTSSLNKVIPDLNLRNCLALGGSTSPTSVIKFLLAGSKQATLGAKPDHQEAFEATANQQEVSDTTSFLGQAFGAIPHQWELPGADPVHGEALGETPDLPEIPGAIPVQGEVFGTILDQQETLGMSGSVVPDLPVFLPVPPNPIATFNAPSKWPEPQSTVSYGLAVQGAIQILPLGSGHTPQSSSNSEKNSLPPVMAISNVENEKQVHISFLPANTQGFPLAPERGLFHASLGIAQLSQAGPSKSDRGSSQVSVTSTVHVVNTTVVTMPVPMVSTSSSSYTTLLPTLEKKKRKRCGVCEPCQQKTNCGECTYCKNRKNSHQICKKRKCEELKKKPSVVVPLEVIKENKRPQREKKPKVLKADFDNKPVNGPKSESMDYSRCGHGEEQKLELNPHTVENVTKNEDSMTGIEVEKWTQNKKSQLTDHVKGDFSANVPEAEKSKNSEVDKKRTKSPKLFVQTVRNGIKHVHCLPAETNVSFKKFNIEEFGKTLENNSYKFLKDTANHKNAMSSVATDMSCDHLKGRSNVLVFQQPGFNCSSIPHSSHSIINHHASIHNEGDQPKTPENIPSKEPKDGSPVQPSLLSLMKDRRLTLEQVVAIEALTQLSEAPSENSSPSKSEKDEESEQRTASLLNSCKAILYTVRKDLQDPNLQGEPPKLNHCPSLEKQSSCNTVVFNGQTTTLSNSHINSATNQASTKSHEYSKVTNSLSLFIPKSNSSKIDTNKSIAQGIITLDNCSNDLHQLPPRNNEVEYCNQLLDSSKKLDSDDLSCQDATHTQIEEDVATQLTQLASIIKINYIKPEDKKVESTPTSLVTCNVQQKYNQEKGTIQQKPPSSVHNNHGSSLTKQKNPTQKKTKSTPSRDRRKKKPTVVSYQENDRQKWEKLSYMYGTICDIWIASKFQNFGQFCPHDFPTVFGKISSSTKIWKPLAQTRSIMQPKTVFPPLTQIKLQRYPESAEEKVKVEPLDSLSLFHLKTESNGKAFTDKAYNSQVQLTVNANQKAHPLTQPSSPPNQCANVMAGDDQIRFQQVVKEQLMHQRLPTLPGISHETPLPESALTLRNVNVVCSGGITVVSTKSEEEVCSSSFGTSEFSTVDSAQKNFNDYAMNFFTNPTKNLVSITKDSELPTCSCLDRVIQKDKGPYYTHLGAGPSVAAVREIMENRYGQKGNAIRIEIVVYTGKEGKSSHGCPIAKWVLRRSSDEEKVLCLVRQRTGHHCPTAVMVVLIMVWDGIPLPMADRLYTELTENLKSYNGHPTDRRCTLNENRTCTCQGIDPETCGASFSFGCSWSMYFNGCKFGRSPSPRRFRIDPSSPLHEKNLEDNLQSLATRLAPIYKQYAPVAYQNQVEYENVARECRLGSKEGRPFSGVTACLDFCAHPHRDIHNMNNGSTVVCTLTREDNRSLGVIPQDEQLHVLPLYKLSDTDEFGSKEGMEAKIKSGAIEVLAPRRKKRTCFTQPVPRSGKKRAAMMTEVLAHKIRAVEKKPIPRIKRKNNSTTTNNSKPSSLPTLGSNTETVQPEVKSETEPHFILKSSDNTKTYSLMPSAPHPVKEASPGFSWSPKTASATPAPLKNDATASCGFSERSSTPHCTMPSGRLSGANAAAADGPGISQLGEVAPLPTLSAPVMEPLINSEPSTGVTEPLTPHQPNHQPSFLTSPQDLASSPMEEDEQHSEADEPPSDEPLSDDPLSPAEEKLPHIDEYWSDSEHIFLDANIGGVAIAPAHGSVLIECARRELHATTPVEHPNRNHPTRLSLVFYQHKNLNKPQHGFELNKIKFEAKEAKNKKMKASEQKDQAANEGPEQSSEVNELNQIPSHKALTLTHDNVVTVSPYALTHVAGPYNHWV", "test": "Fluorometric TET hydroxylase activity assay with purified TET1 enzyme", "format": "biochemical", "conditions": "screened at 10^−7 to 10^−4 M", "protocol": "Figure 4 and Table S1 show the dependence of TET1 activity on the concentration of compound 1.\nCompounds 1–6 were tested for the inhibition of the total 5mC hydroxylase TET enzyme using a purified TET1 enzyme (Active Motif, Carlsbad, CA, USA) by a fluorometric TET hydroxylase activity quantification kit (Abcam, Cambridge, UK). A total of 25 µg of purified TET1 protein was diluted in a TET assay buffer in a 5 mL volumetric flask, containing α-ketoglutarate and ferric sulfate. The concentrations of ascorbic acid, α-ketoglutarate, and ferric sulfate in the diluted TET assay buffer were 2, 1, and 0.1 mM, respectively. Tested compounds were dissolved in DMSO to obtain a concentration of 0.01 M. DMSO solutions of compounds 1–6 were then diluted with a TET assay buffer to concentrations of 10^−6, 10^−5, 10^−4, and 10^−3 M (in 10% of DMSO). Subsequently, 50 μL of the final TET assay buffer containing the TET1 protein and 5 μL of chelator’s solution was applied to each sample well. In control wells (TET1 without inhibitors), 5 μL of the final TET assay buffer with 10% DMSO was used instead of chelator’s solution. The final concentrations of chelators in a well plate were 10^−7, 10^−6, 10^−5, 10^−4, and 0 M with less than 1% of final concentration of DMSO. The following steps were performed according to manufacturer’s protocol. The TET1 protein converts methylated substrate to hydroxymethylated products, which could be recognized by a specific antibody. We determined the residual activity of the TET1 protein by measuring a fluorescence intensity on an enzyme-linked immunoabsorbent assay reader (ELISA), Infinite® 200 PRO (Tecan, Switzerland, Switzerland), at an excitation wavelength at 530 nm and an emission wavelength at 590 nm. Each concentration was measured twice within one test, and each test was repeated three times. IC50 values of active inhibitors were determined using GraphPad Prism 8 via nonlinear regression."}, "BT-20 cells": {"tested_on": "BT-20 cells", "test": "MTT cytotoxicity assay, BT-20", "format": "cell-based, human", "protocol": "as §1\nThe human mammary gland/breast cell line (BT-20), purchased from ATCC (BT-20 (ATCC® HTB-19™), Manassas, VA, USA), was used for the cytotoxicity assay (MTT), and BT-20 cells were cultivated under standard conditions in Eagle’s minimum essential medium (ATCC, Manassas, VA, USA) supplemented with 10% FBS and streptomycin (100 μg/mL) at 37 °C at a 5% CO2 atmosphere.\nas §2"}}, "note": "Where “and” joins values, the source holds several entries; their conditions need not be identical. Equal values may be shown once. Entries after “also recorded” stand apart in the source; their conditions may differ."}
{"smiles": "Cc1ccc(-n2c(-c3ccc(C(=O)N/N=C/c4ccc(O)cc4O)cc3)cc3c2cc(-c2ccc(C(=O)N/N=C/c4ccc(O)cc4O)cc2)n3-c2ccc(C)cc2)cc1", "note": "[Compound 4]", "values": [{"measurement": "Cell viability %", "setting": "Caov-3 cells; Caov-3, 100 nM, 48 h, repeats, 0.1 µM", "result": "84.95% and 82.17%"}, {"measurement": "Cell viability %", "setting": "Caov-3 cells; Caov-3, 500 nM, 48 h, repeats, 0.5 µM", "result": "102.391% and 108.5681%"}, {"measurement": "Cell viability %", "setting": "Caov-3 cells; Caov-3, 750 nM, 48 h, repeats, 0.75 µM", "result": "102.8833% and 94.08%"}, {"measurement": "Cell viability %", "setting": "Caov-3 cells; Caov-3, 1 uM, 48 h, repeats, 1 µM", "result": "98.73% and 92.87%"}, {"measurement": "Cell viability %", "setting": "Caov-3 cells; Caov-3, 2.5 uM, 48 h, repeats, 2.5 µM", "result": "74.65% and 110.1266% and 69.7%"}, {"measurement": "Cell viability %", "setting": "Caov-3 cells; Caov-3, 5 uM, 48 h, repeats, 5 µM", "result": "50.71% and 80.94% and 55.26%"}, {"measurement": "Cell viability %", "setting": "Caov-3 cells; Caov-3, 7.5 uM, 48 h, repeats, 7.5 µM", "result": "53.66% and 54.17%"}, {"measurement": "Cell viability %", "setting": "Caov-3 cells; Caov-3, 10 uM, 48 h, repeats, 10 µM", "result": "41.07% and 42.6107%"}, {"measurement": "Cell viability %", "setting": "Caov-3 cells; Caov-3, 15 uM, 48 h, repeats, 15 µM", "result": "17.58% and 17.6%"}, {"measurement": "Cell viability %", "setting": "Caov-3 cells; Caov-3, 20 uM, 48 h, repeats, 20 µM", "result": "14.91% and 14.49%"}, {"measurement": "viability at 0.1 µM", "setting": "Caov-3 cells; Homo sapiens, Caov-3, 48 h, Caov-3, 100 nM, repeats, read-out: Cell viability %", "result": 68.6, "unit": "%"}, {"measurement": "viability at 0.5 µM", "setting": "Caov-3 cells; Homo sapiens, Caov-3, 48 h, Caov-3, 500 nM, repeats, read-out: Cell viability %", "result": 104, "unit": "%"}, {"measurement": "viability at 0.75 µM", "setting": "Caov-3 cells; Homo sapiens, Caov-3, 48 h, Caov-3, 750 nM, repeats, read-out: Cell viability %", "result": 92.8, "unit": "%"}, {"measurement": "viability at 1 µM", "setting": "Caov-3 cells; Homo sapiens, Caov-3, 48 h, Caov-3, 1 uM, repeats, read-out: Cell viability %", "result": 101, "unit": "%"}, {"measurement": "viability at 7.5 µM", "setting": "Caov-3 cells; Homo sapiens, Caov-3, 48 h, Caov-3, 7.5 uM, repeats, read-out: Cell viability %", "result": 53.1, "unit": "%"}, {"measurement": "viability at 10 µM", "setting": "Caov-3 cells; Homo sapiens, Caov-3, 48 h, Caov-3, 10 uM, repeats, read-out: Cell viability %", "result": 42.9, "unit": "%"}, {"measurement": "viability at 15 µM", "setting": "Caov-3 cells; Homo sapiens, Caov-3, 48 h, Caov-3, 15 uM, repeats, read-out: Cell viability %", "result": 19.5, "unit": "%"}, {"measurement": "viability at 20 µM", "setting": "Caov-3 cells; Homo sapiens, Caov-3, 48 h, Caov-3, 20 uM, repeats, read-out: Cell viability %", "result": 14.3, "unit": "%"}, {"measurement": "IC50", "setting": "Caov-3 cells; Homo sapiens, Caov-3, MTT, 48 h", "result": 9.13, "unit": "µM"}, {"measurement": "inhibitory activity towards TET1", "setting": "TET1 protein", "result": "no inhibitory effect; also recorded: no significant inhibition"}, {"measurement": "Cell viability %", "setting": "BT-20 cells; BT-20, 100 nM, 48 h, repeats, 0.1 µM", "result": "89.05% and 76.97% and 98.11%"}, {"measurement": "Cell viability %", "setting": "BT-20 cells; BT-20, 500 nM, 48 h, repeats, 0.5 µM", "result": "90.8088% and 82.57%"}, {"measurement": "Cell viability %", "setting": "BT-20 cells; BT-20, 750 nM, 48 h, repeats, 0.75 µM", "result": "103.1798% and 88.69% and 109.7163%"}, {"measurement": "Cell viability %", "setting": "BT-20 cells; BT-20, 1 uM, 48 h, repeats, 1 µM", "result": "100.5483% and 88.51%"}, {"measurement": "Cell viability %", "setting": "BT-20 cells; BT-20, 2.5 uM, 48 h, repeats, 2.5 µM", "result": "82.74% and 106.2024% and 110.5893%"}, {"measurement": "Cell viability %", "setting": "BT-20 cells; BT-20, 5 uM, 48 h, repeats, 5 µM", "result": "77.52% and 61.62%"}, {"measurement": "Cell viability %", "setting": "BT-20 cells; BT-20, 7.5 uM, 48 h, repeats, 7.5 µM", "result": "44.3% and 44.18%"}, {"measurement": "Cell viability %", "setting": "BT-20 cells; BT-20, 10 uM, 48 h, repeats, 10 µM", "result": "18.92% and 21.27%"}, {"measurement": "Cell viability %", "setting": "BT-20 cells; BT-20, 15 uM, 48 h, repeats, 15 µM", "result": "8.454% and 10.83%"}, {"measurement": "Cell viability %", "setting": "BT-20 cells; BT-20, 20 uM, 48 h, repeats, 20 µM", "result": "9.864% and 12.92%"}, {"measurement": "viability at 0.5 µM", "setting": "BT-20 cells; Homo sapiens, BT-20, 48 h, BT-20, 500 nM, repeats, read-out: Cell viability %", "result": 77.8, "unit": "%"}, {"measurement": "viability at 1 µM", "setting": "BT-20 cells; Homo sapiens, BT-20, 48 h, BT-20, 1 uM, repeats, read-out: Cell viability %", "result": 96.3, "unit": "%"}, {"measurement": "viability at 5 µM", "setting": "BT-20 cells; Homo sapiens, BT-20, 48 h, BT-20, 5 uM, repeats, read-out: Cell viability %", "result": 73.5, "unit": "%"}, {"measurement": "viability at 7.5 µM", "setting": "BT-20 cells; Homo sapiens, BT-20, 48 h, BT-20, 7.5 uM, repeats, read-out: Cell viability %", "result": 37.5, "unit": "%"}, {"measurement": "viability at 10 µM", "setting": "BT-20 cells; Homo sapiens, BT-20, 48 h, BT-20, 10 uM, repeats, read-out: Cell viability %", "result": 20.1, "unit": "%"}, {"measurement": "viability at 15 µM", "setting": "BT-20 cells; Homo sapiens, BT-20, 48 h, BT-20, 15 uM, repeats, read-out: Cell viability %", "result": 8.06, "unit": "%"}, {"measurement": "viability at 20 µM", "setting": "BT-20 cells; Homo sapiens, BT-20, 48 h, BT-20, 20 uM, repeats, read-out: Cell viability %", "result": 8.37, "unit": "%"}, {"measurement": "IC50", "setting": "BT-20 cells; Homo sapiens, BT-20, MTT, 48 h", "result": 6.22, "unit": "µM"}]}
